Laboratory results published in ChEMBL document CHEMBL1201862, “PubChem BioAssay data set” (2004).
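Interpolation was linear, between the two tested concentrations surrounding the appropriate level; five concentrations were tested over 48 hours in 96-well plates. GI50 marks 50% less growth.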 Active and inactive are the calls of the source. Cut-off read from the data, not from the text of the source: active = GI50 up to about 1.1 µM and inactive = higher.

Key:
Test in all cases: NCI-60 cell line screen, 48 h
MDA-N = test system: MDA-N
BT-549 = test system: BT-549
KM-20L2 = test system: KM-20L2
DMS-273 = test system: DMS-273
DMS-114 = test system: DMS-114
RXF 631 = test system: RXF 631
M19-MEL = test system: M19-MEL
HOP-18 = test system: HOP-18
XF498 = test system: XF498

C[N+](C)(CCNC(=O)c1cccc2cc3ccccc3nc12)Cc1ccc([N+](=O)[O-])cc1
GI50 (MDA-N): > 100 µM (inactive)
GI50 (BT-549): > 100 µM (inactive)

COc1cc2c(c(OC)c1OC)-c1ccc(SC)c(=O)cc1[C@@H](OC(C)=O)CC2
GI50 (MDA-N): < 0.01 µM (active)
GI50 (BT-549): < 0.01 µM (active)

Cc1ccc(SCC(OCn2cnc3c(N)ncnc32)[C@H](C)F)cc1 (stereo not given in full)
GI50 (BT-549): 40.9 µM (inactive)

COC(=O)C1(C(=O)OC)CC2=C(S(=O)(=O)c3ccccc3)C[C@H](C#N)[C@H]2C1
GI50 (MDA-N): 79.4 µM (inactive)

CNC(=O)Nc1cc2c3c(c1)CCCN3CCC2
GI50 (MDA-N): > 10 µM (inactive)
GI50 (BT-549): > 10 µM (inactive)

CN(C)c1cc2ccccc2oc1=O
GI50 (MDA-N): > 100 µM (inactive)
GI50 (BT-549): > 100 µM (inactive)

[N-]=[N+]=C1C(=O)C2CC3CC1CC2C3 (stereo not given)
GI50 (KM-20L2): > 100 µM (inactive)
GI50 (DMS-273): > 100 µM (inactive)
GI50 (DMS-114): > 100 µM (inactive)
GI50 (RXF 631): > 100 µM (inactive)
GI50 (M19-MEL): > 100 µM (inactive)
GI50 (HOP-18): > 100 µM (inactive)

CN(C)Cc1ccc(O)c(CN(C)C)n1
GI50 (MDA-N): > 100 µM (inactive)
GI50 (BT-549): > 100 µM (inactive)

NC(=O)c1cccc(/N=c2\oc3ccc(Br)cc3cc2-c2nc3ccccc3[nH]2)c1
GI50 (MDA-N): 17.7 µM (inactive)
GI50 (BT-549): 13.6 µM (inactive)

COc1cc2c(cc1OC)C1Cc3ccccc3CN1CCC2 (stereo not given)
GI50 (MDA-N): 45 µM (inactive)

Clc1cccc2[nH]ncc12
GI50 (MDA-N): > 100 µM (inactive)
GI50 (BT-549): 36.1 µM (inactive)

Cc1nc(O)nc2nc3ccc(Cl)cc3c(N(CCO)CCO)c12
GI50 (MDA-N): > 100 µM (inactive)
GI50 (BT-549): > 100 µM (inactive)

NC(=O)N/N=C/c1ccccc1O
GI50 (BT-549): > 100 µM (inactive)

CN(C)CCNc1ccc2c(=O)n(CCN(C)C)c(=O)n3c4ccc([N+](=O)[O-])cc4c(=O)c1c23
GI50 (MDA-N): 0.287 µM (active)
GI50 (BT-549): 0.655 µM (active)

N#CC1(Cc2ccccc2[N+](=O)[O-])c2ccccc2C2C(N1C(=O)c1ccccc1)C2(Cl)Cl (stereo not given)
GI50 (KM-20L2): 7.19 µM (inactive)
GI50 (DMS-273): 28.2 µM (inactive)
GI50 (DMS-114): > 100 µM (inactive)
GI50 (M19-MEL): > 100 µM (inactive)
GI50 (HOP-18): > 100 µM (inactive)

O=C(c1ccccc1)C1C(c2ccccc2[N+](=O)[O-])N1C1CCCCC1 (stereo not given)
GI50 (MDA-N): 2.06 µM (inactive)
GI50 (BT-549): 11.6 µM (inactive)

O[C@H]1[C@H](O)[C@@H](O)[C@@]2(O)C[C@@H](O)[C@@H]1N2
GI50 (MDA-N): > 100 µM (inactive)

CCOP(C)(=O)C(N)Cc1ccc(OC)c(OC)c1 (stereo not given)
GI50 (MDA-N): > 100 µM (inactive)
GI50 (BT-549): > 100 µM (inactive)

CC[C@@]1(O)C(=O)OCc2c1cc1n(c2=O)Cc2cc3cc(O)ccc3nc2-1 [HYDROXYCAMPTOTHECIN]
GI50 (XF498): 0.0262 µM (active)
GI50 (KM-20L2): 0.0834 µM (active)
GI50 (DMS-114): 0.0136 µM (active)
GI50 (BT-549): 0.0543 µM (active)
GI50 (M19-MEL): 0.0513 µM (active)
GI50 (HOP-18): 0.109 µM (active)

Cc1cccc(-c2nnc3s/c(=C\c4ccc5c(c4)OCO5)c(=O)n23)c1
GI50 (XF498): > 100 µM (inactive)
GI50 (KM-20L2): > 100 µM (inactive)
GI50 (DMS-273): > 100 µM (inactive)
GI50 (DMS-114): > 100 µM (inactive)
GI50 (M19-MEL): > 100 µM (inactive)
GI50 (HOP-18): > 100 µM (inactive)

N=C(c1ccccc1)N(c1ccccc1)c1ccccc1
GI50 (KM-20L2): > 100 µM (inactive)
GI50 (DMS-273): 42.5 µM (inactive)
GI50 (M19-MEL): > 100 µM (inactive)
GI50 (HOP-18): 0.0415 µM (active)

O=Nc1c(-c2cccc([N+](=O)[O-])c2)nc2cnccn12
GI50 (BT-549): 27.9 µM (inactive)

COCN(CCC1=CCCCC1)C(=O)OC
GI50 (MDA-N): > 100 µM (inactive)
GI50 (BT-549): > 100 µM (inactive)

COc1ccc(/C=C2/C(=O)N(/C=C3\C(=O)Oc4ccccc4C3=O)/C(=N/C(C)=O)N2C)cc1OC
GI50 (MDA-N): > 100 µM (inactive)

C/C=C1/CN2[C@@H](C3=C[C@@H]4[C@@H]5N(C3=O)c3ccccc3[C@@]53CCN5C/C(=C/C)[C@@H]4C[C@H]53)C[C@@]34c5ccccc5N5C(=O)CC=C([C@H]1C[C@H]23)[C@H]54 [ISOSUNGUCINE]
GI50 (MDA-N): 3.84 µM (inactive)
GI50 (BT-549): 8.34 µM (inactive)

C/C(=C/C(=O)Nn1c(Cc2ccccc2)n[nH]c1=O)C(=O)O
GI50 (MDA-N): > 100 µM (inactive)
GI50 (BT-549): > 100 µM (inactive)

C/C(O)=C/C(=O)c1[nH]c(C(=O)O)cc1C1CCN(Cc2ccccc2)C1=O (stereo not given)
GI50 (MDA-N): 17.2 µM (inactive)
GI50 (BT-549): 22.6 µM (inactive)

O=CC1C(=O)Nc2nc3ccccc3n2C1c1ccccc1 (stereo not given)
GI50 (BT-549): 14.1 µM (inactive)

CN1C(=O)C(C)(C)C2(SC(C)(C)C2(C)C)N(C)C1=S (stereo not given)
GI50 (DMS-273): > 100 µM (inactive)
GI50 (DMS-114): 67.3 µM (inactive)
GI50 (M19-MEL): > 100 µM (inactive)
GI50 (HOP-18): > 100 µM (inactive)

CC1=C(C(=O)Nc2ccccc2C)C(c2ccccc2)C(C(=O)Nc2ccccc2C)=C(C)N1
GI50 (XF498): 23.1 µM (inactive)
GI50 (KM-20L2): 42.2 µM (inactive)
GI50 (DMS-273): 49.5 µM (inactive)
GI50 (DMS-114): 30.4 µM (inactive)
GI50 (M19-MEL): 37.2 µM (inactive)
GI50 (HOP-18): 36.6 µM (inactive)

O=C(O)c1cnccc1-c1cc(=O)[nH]n1-c1ccccc1
GI50 (MDA-N): 41.8 µM (inactive)
GI50 (BT-549): > 80.5 µM (inactive)

O=c1n(CCO)nc2n1CCCN2
GI50 (MDA-N): > 100 µM (inactive)
GI50 (BT-549): > 100 µM (inactive)

CC1=CC2CC(C)=C(CC[C@]3(C)CC[C@H]([C@@H](C)C(=O)O)OO3)C(C)(C)C2CC1 (stereo not given in full)
GI50 (KM-20L2): 1.29 µM (inactive)
GI50 (DMS-273): 0.528 µM (active)
GI50 (DMS-114): 0.376 µM (active)
GI50 (RXF 631): 1.48 µM (inactive)
GI50 (M19-MEL): 1.63 µM (inactive)
GI50 (HOP-18): 0.158 µM (active)
